# Measured values as given in patent publication US8192962B2, “Processes for detecting toxic substances” (Daikin Industries, Ltd., priority 2001, dated 2012).
# Tested on: Mitochondria-located protein genes
# Test: DNA chip mRNA expression in yeast, mitochondria-located protein genes (Table 2)
# Type: cell-based, Saccharomyces cerevisiae S288C
# Conditions: cells incubated two hours with the chemical substance
# Summary of the method: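 Measured as treated-to-untreated fluorescence ratio on a full-genome yeast DNA chip. Cells (S288C, YPD, 25° C.) were exposed in log phase for two hours to one chemical, dosed to curb growth without killing.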
structure (smiles),measurement,setting,value
"CCCCCCCCCCCCOS(=O)(=O)[O-].[Na+] [(18), sodium lauryl sulfate]",The level of expressed mRNA in the presence of chemical substance/The level of expressed mRNA in the absence of chemical substance,yeast gene YAL039C,1.1
same,The level of expressed mRNA in the presence of chemical substance/The level of expressed mRNA in the absence of chemical substance,yeast gene YBL022C,0.7
same,The level of expressed mRNA in the presence of chemical substance/The level of expressed mRNA in the absence of chemical substance,yeast gene YBL030C,1.1
same,The level of expressed mRNA in the presence of chemical substance/The level of expressed mRNA in the absence of chemical substance,yeast gene YBL038W,1.9
same,The level of expressed mRNA in the presence of chemical substance/The level of expressed mRNA in the absence of chemical substance,yeast gene YBL099W,1.2
same,The level of expressed mRNA in the presence of chemical substance/The level of expressed mRNA in the absence of chemical substance,yeast gene YBR003W,1.3
same,The level of expressed mRNA in the presence of chemical substance/The level of expressed mRNA in the absence of chemical substance,yeast gene YBR044C,1.3
same,The level of expressed mRNA in the presence of chemical substance/The level of expressed mRNA in the absence of chemical substance,yeast gene YBR091C,1.0
same,The level of expressed mRNA in the presence of chemical substance/The level of expressed mRNA in the absence of chemical substance,yeast gene YBR122C,1.5
same,The level of expressed mRNA in the presence of chemical substance/The level of expressed mRNA in the absence of chemical substance,yeast gene YBR185C,1.3
same,The level of expressed mRNA in the presence of chemical substance/The level of expressed mRNA in the absence of chemical substance,yeast gene YBR221C,1.0
same,The level of expressed mRNA in the presence of chemical substance/The level of expressed mRNA in the absence of chemical substance,yeast gene YBR251W,1.4
same,The level of expressed mRNA in the presence of chemical substance/The level of expressed mRNA in the absence of chemical substance,yeast gene YBR282W,1.2
same,The level of expressed mRNA in the presence of chemical substance/The level of expressed mRNA in the absence of chemical substance,yeast gene YCL057W,1.1
same,The level of expressed mRNA in the presence of chemical substance/The level of expressed mRNA in the absence of chemical substance,yeast gene YCR046C,1.0
same,The level of expressed mRNA in the presence of chemical substance/The level of expressed mRNA in the absence of chemical substance,yeast gene YCR083W,1.3
same,The level of expressed mRNA in the presence of chemical substance/The level of expressed mRNA in the absence of chemical substance,yeast gene YDL067C,1.7
same,The level of expressed mRNA in the presence of chemical substance/The level of expressed mRNA in the absence of chemical substance,yeast gene YDL181W,1.4
same,The level of expressed mRNA in the presence of chemical substance/The level of expressed mRNA in the absence of chemical substance,yeast gene YDL198C,1.1
same,The level of expressed mRNA in the presence of chemical substance/The level of expressed mRNA in the absence of chemical substance,yeast gene YDR079W,1.3
same,The level of expressed mRNA in the presence of chemical substance/The level of expressed mRNA in the absence of chemical substance,yeast gene YDR178W,2.3
same,The level of expressed mRNA in the presence of chemical substance/The level of expressed mRNA in the absence of chemical substance,yeast gene YDR231C,1.3
same,The level of expressed mRNA in the presence of chemical substance/The level of expressed mRNA in the absence of chemical substance,yeast gene YDR258C,1.3
same,The level of expressed mRNA in the presence of chemical substance/The level of expressed mRNA in the absence of chemical substance,yeast gene YDR298C,1.6
same,The level of expressed mRNA in the presence of chemical substance/The level of expressed mRNA in the absence of chemical substance,yeast gene YDR347W,1.2
same,The level of expressed mRNA in the presence of chemical substance/The level of expressed mRNA in the absence of chemical substance,yeast gene YDR377W,2.5
same,The level of expressed mRNA in the presence of chemical substance/The level of expressed mRNA in the absence of chemical substance,yeast gene YDR529C,2.3
same,The level of expressed mRNA in the presence of chemical substance/The level of expressed mRNA in the absence of chemical substance,yeast gene YEL024W,1.5
same,The level of expressed mRNA in the presence of chemical substance/The level of expressed mRNA in the absence of chemical substance,yeast gene YEL039C,1.1
same,The level of expressed mRNA in the presence of chemical substance/The level of expressed mRNA in the absence of chemical substance,yeast gene YER178W,0.9
same,The level of expressed mRNA in the presence of chemical substance/The level of expressed mRNA in the absence of chemical substance,yeast gene YFL016C,0.9
same,The level of expressed mRNA in the presence of chemical substance/The level of expressed mRNA in the absence of chemical substance,yeast gene YGL018C,1.0
same,The level of expressed mRNA in the presence of chemical substance/The level of expressed mRNA in the absence of chemical substance,yeast gene YGL187C,2.4
same,The level of expressed mRNA in the presence of chemical substance/The level of expressed mRNA in the absence of chemical substance,yeast gene YGL191W,1.7
same,The level of expressed mRNA in the presence of chemical substance/The level of expressed mRNA in the absence of chemical substance,yeast gene YGR008C,4.2
same,The level of expressed mRNA in the presence of chemical substance/The level of expressed mRNA in the absence of chemical substance,yeast gene YGR028W,2.6
same,The level of expressed mRNA in the presence of chemical substance/The level of expressed mRNA in the absence of chemical substance,yeast gene YGR062C,1.1
same,The level of expressed mRNA in the presence of chemical substance/The level of expressed mRNA in the absence of chemical substance,yeast gene YGR076C,1.5
same,The level of expressed mRNA in the presence of chemical substance/The level of expressed mRNA in the absence of chemical substance,yeast gene YGR082W,0.8
same,The level of expressed mRNA in the presence of chemical substance/The level of expressed mRNA in the absence of chemical substance,yeast gene YGR174C,2.3
same,The level of expressed mRNA in the presence of chemical substance/The level of expressed mRNA in the absence of chemical substance,yeast gene YGR244C,3.1
same,The level of expressed mRNA in the presence of chemical substance/The level of expressed mRNA in the absence of chemical substance,yeast gene YHR008C,1.0
same,The level of expressed mRNA in the presence of chemical substance/The level of expressed mRNA in the absence of chemical substance,yeast gene YIL155C,1.4
same,The level of expressed mRNA in the presence of chemical substance/The level of expressed mRNA in the absence of chemical substance,yeast gene YJL096W,1.2
same,The level of expressed mRNA in the presence of chemical substance/The level of expressed mRNA in the absence of chemical substance,yeast gene YJL102W,1.1
same,The level of expressed mRNA in the presence of chemical substance/The level of expressed mRNA in the absence of chemical substance,yeast gene YJL133W,0.7
same,The level of expressed mRNA in the presence of chemical substance/The level of expressed mRNA in the absence of chemical substance,yeast gene YJL166W,4.0
same,The level of expressed mRNA in the presence of chemical substance/The level of expressed mRNA in the absence of chemical substance,yeast gene YJL180C,1.4
same,The level of expressed mRNA in the presence of chemical substance/The level of expressed mRNA in the absence of chemical substance,yeast gene YJR045C,0.9
same,The level of expressed mRNA in the presence of chemical substance/The level of expressed mRNA in the absence of chemical substance,yeast gene YJR077C,0.8
